Patent US20230183193A1, “4-DIFLUOROMETHYL BENZOYL AMIDES WITH HERBICIDAL ACTION” (BAYER CROPSCIENCE AKTIENGESELLSCHAFT, priority 2017, published 2023)

What was measured:
Matricaria inodora = test: Pre-emergence herbicidal action, MATIN; type: in vivo; settings: for Herbicidal efficacy against MATIN: Table K
How it was run: (§1)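 Weed seeds were laid out in sandy loam and covered with soil, then the soil surface was treated with an aqueous suspension or emulsion of the formulated compound containing 0.2% wetting agent. Pots stayed in the greenhouse for 3 weeks before damage was rated visually against untreated plants.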

Amaranthus retroflexus [1] = test: Post-emergence herbicidal action, AMARE; type: in vivo; settings: 80 g/ha, Table D
How it was run: (§2)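 Greenhouse-grown weeds in sandy loam, treated at the one-leaf stage 2 to 3 weeks after sowing with WP or EC formulations sprayed as aqueous suspension/emulsion at 600 to […] water plus 0.2% wetting agent. Visual scoring after about 3 weeks versus untreated controls, 0% (like control) to 100% (plants dead).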

Setaria viridis [2] = test: Post-emergence herbicidal action, SETVI; type: in vivo
How it was run: as §2

Abutilon theophrasti [3] = test: Pre-emergence herbicidal action, ABUTH; type: in vivo; settings: for Herbicidal efficacy against ABUTH: Table K
How it was run: as §1

Polygonum convolvulus = test: Pre-emergence herbicidal action, POLCO; type: in vivo; settings: Table K
How it was run: as §1

Abutilon theophrasti [4] = test: Post-emergence herbicidal action, ABUTH; type: in vivo; settings: 80 g/ha, Table D
How it was run: as §2

ECHCG [5] = test: Pre-emergence herbicidal action, ECHCG; type: in vivo, Echinochloa crus-galli
Stellaria media [6] = test: Post-emergence herbicidal action, STEME; type: in vivo
How it was run: as §2

Pharbitis purpureum = test: Post-emergence herbicidal action, PHBPU; type: in vivo; settings: 80 g/ha, Table D
How it was run: as §2

Viola tricolor [7] = test: Pre-emergence herbicidal action, VIOTR; type: in vivo; settings: for Herbicidal efficacy against VIOTR: Table K
How it was run: as §1

Alopecurus myosuroides [8] = test: Pre-emergence herbicidal action, ALOMY; type: in vivo
How it was run: as §1

Cyperus serotinus [9] = test: Post-emergence herbicidal action, CYPES; type: in vivo; settings: 5 g/ha
Method: Seeds of monocotyledonous and dicotyledonous weed and crop plants are laid out in sandy loam soil in wood-fiber pots, covered with soil and cultivated in a greenhouse under good growth conditions. 2 to 3 weeks after sowing, the test plants are treated at the one-leaf stage. The compounds of the invention, formulated in the form of wettable powders (WP) or as emulsion concentrates (EC), are then sprayed onto the green parts of the plants in the form of an aqueous suspension or emulsion at a water application rate equating to […], with addition of 0.2% wetting agent. After the test plants have been left to stand in the greenhouse under optimal growth conditions for about 3 weeks, the action of the preparations is assessed visually in comparison to untreated controls (herbicidal action in percent (%): 100% activity=the plants have died, 0% activity=like control plants). […] At the same time, inventive compounds leave Gramineae crops such as barley, wheat, rye, millet/sorghum, corn or rice virtually undamaged when applied post-emergence, even at high active compound dosages. In addition, some substances are also harmless to dicotyledonous crops such as soya, cotton, oilseed rape, sugar beet or potatoes. […]

Setaria viridis [10] = test: Pre-emergence herbicidal action, SETVI; type: in vivo
How it was run: as §1

ECHCG [11] = test: Post-emergence herbicidal action, ECHCG; type: in vivo; settings: 80 g/ha, Table C
How it was run: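 Weed and crop plants grown in sandy loam in the greenhouse, treated at the one-leaf stage 2–3 weeks after sowing. Damage scored visually after about 3 weeks vs untreated controls (0% = control, 100% = dead).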

Avena fatua [12] = test: Post-emergence herbicidal action, AVEFA; type: in vivo
How it was run: as §2

Viola tricolor [13] = test: Post-emergence herbicidal action, VIOTR; type: in vivo
How it was run: as §2

Stellaria media [14] = test: Pre-emergence herbicidal action, STEME; type: in vivo; settings: dosage 320 g/ha, scored visually after 3 weeks vs untreated controls
How it was run: as §1

Amaranthus retroflexus [15] = test: Pre-emergence herbicidal action, AMARE; type: in vivo; settings: dosage 320 g/ha, scored visually after 3 weeks vs untreated controls
How it was run: as §1

Avena fatua [16] = test: Pre-emergence herbicidal action, AVEFA; type: in vivo
How it was run: as §1

Alopecurus myosuroides [17] = test: Post-emergence herbicidal action, ALOMY; type: in vivo
How it was run: as §2

Cyperus serotinus [18] = test: Pre-emergence herbicidal action, CYPES; type: in vivo
How it was run: as §1

[19] = dosage 320 g/ha, scored visually after 3 weeks vs untreated controls

## Cc1c(C(=O)Nc2nnnn2C)ccc(C(F)F)c1[S+](C)[O-] (centres unmarked) [Example 1-2]
Matricaria inodora; dosage 20 g/ha
  Herbicidal efficacy against MATIN: 70
Matricaria inodora; dosage 80 g/ha
  Herbicidal efficacy against MATIN: 100
Matricaria inodora; dosage 320 g/ha
  Herbicidal efficacy against MATIN: 100
Matricaria inodora; [19]
  herbicidal activity MATIN: 100%
Amaranthus retroflexus [1]
  herbicidal activity AMARE: 80%
Setaria viridis [2]; 5 g/ha
  Herbicidal efficacy against SETVI: 90
Setaria viridis [2]; 20 g/ha
  Herbicidal efficacy against SETVI: 90
Setaria viridis [2]; 80 g/ha, Table C
  herbicidal activity SETVI: 90%
Abutilon theophrasti [3]; dosage 80 g/ha
  Herbicidal efficacy against ABUTH: 100
Abutilon theophrasti [3]; dosage 320 g/ha
  Herbicidal efficacy against ABUTH: 100
Abutilon theophrasti [3]; [19]
  herbicidal activity ABUTH: 100%
Polygonum convolvulus; dosage 80 g/ha
  Herbicidal efficacy against POLCO: 70
Polygonum convolvulus; dosage 320 g/ha
  Herbicidal efficacy against POLCO: 80
Abutilon theophrasti [4]
  herbicidal activity ABUTH: 80%
ECHCG [5]; 20 g/ha
  Herbicidal efficacy against ECHCG: 40
ECHCG [5]; 80 g/ha
  Herbicidal efficacy against ECHCG: 100
ECHCG [5]; 320 g/ha
  Herbicidal efficacy against ECHCG: 100
Stellaria media [6]; 5 g/ha
  Herbicidal efficacy against STEME: 90
Stellaria media [6]; 20 g/ha
  Herbicidal efficacy against STEME: 90
Stellaria media [6]; 80 g/ha, Table D
  Herbicidal activity STEME: 100%
Pharbitis purpureum
  Herbicidal activity PHBPU: 90%
Viola tricolor [7]; dosage 20 g/ha
  Herbicidal efficacy against VIOTR: 80
Viola tricolor [7]; dosage 80 g/ha
  Herbicidal efficacy against VIOTR: 100
Viola tricolor [7]; dosage 320 g/ha
  Herbicidal efficacy against VIOTR: 100
Viola tricolor [7]; [19]
  herbicidal activity VIOTR: 100%
Alopecurus myosuroides [8]; 20 g/ha
  Herbicidal efficacy against ALOMY: 70
Alopecurus myosuroides [8]; 80 g/ha
  Herbicidal efficacy against ALOMY: 90
Alopecurus myosuroides [8]; 320 g/ha
  Herbicidal efficacy against ALOMY: 100
Alopecurus myosuroides [8]; [19]
  herbicidal activity ALOMY: 100%
Cyperus serotinus [9]
  Herbicidal efficacy against CYPES: 50
Setaria viridis [10]; 80 g/ha
  Herbicidal efficacy against SETVI: 90
Setaria viridis [10]; 320 g/ha
  Herbicidal efficacy against SETVI: 100
Setaria viridis [10]; [19]
  herbicidal activity SETVI: 100%
ECHCG [11]
  Herbicidal activity ECHCG: 90%
Avena fatua [12]; 5 g/ha
  Herbicidal efficacy against AVEFA: 70
Avena fatua [12]; 20 g/ha
  Herbicidal efficacy against AVEFA: 90
Avena fatua [12]; 80 g/ha, Table C
  herbicidal activity AVEFA: 100%
Viola tricolor [13]; 5 g/ha
  Herbicidal efficacy against VIOTR: 100
Viola tricolor [13]; 20 g/ha
  Herbicidal efficacy against VIOTR: 100
Viola tricolor [13]; 80 g/ha, Table D
  herbicidal activity VIOTR: 100%
Stellaria media [14]
  Herbicidal activity STEME: 90%
Amaranthus retroflexus [15]
  herbicidal activity AMARE: 100%
Avena fatua [16]; 20 g/ha
  Herbicidal efficacy against AVEFA: 20
Avena fatua [16]; 80 g/ha
  Herbicidal efficacy against AVEFA: 70
Avena fatua [16]; 320 g/ha
  Herbicidal efficacy against AVEFA: 100
Avena fatua [16]; [19]
  herbicidal activity AVEFA: 100%
Alopecurus myosuroides [17]; 5 g/ha
  Herbicidal efficacy against ALOMY: 60
Alopecurus myosuroides [17]; 20 g/ha
  Herbicidal efficacy against ALOMY: 80
Alopecurus myosuroides [17]; 80 g/ha, Table C
  herbicidal activity ALOMY: 90%
Cyperus serotinus [18]; 20 g/ha
  Herbicidal efficacy against CYPES: 60
Cyperus serotinus [18]; 80 g/ha
  Herbicidal efficacy against CYPES: 80
Cyperus serotinus [18]; 320 g/ha
  Herbicidal efficacy against CYPES: 90
Cyperus serotinus [18]; [19]
  herbicidal activity CYPES: 90%
